Experimental data: US6649654B1, “Methods for identifying and using IKK inhibitors” (The Regents of the University of California, priority 1999, dated 2003)
“Also recorded” adds a separate entry of the source.

Legend:
NF-κB [1] = experiment: NF-κB activation by EMSA in Jurkat cells stimulated with TNFα or TPA; format: cell-based, human
Procedure: (§1) Cells used in the experiments described herein were cultured in either RPMI 1640 (Jurkat cells) or DMEM (HeLa and COS cells), supplemented with 10% FBS and antibiotics. Cells were stimulated with either 25 ng/ml TPA, 20 ng/ml recombinant TNFα, or 10 ng/ml interleukin 1β (Sigma). PGA1, 15dPGJ2, T×B2, LTB4, AA and other PGs (Cayman) dissolved in ethanol were used as well, as known in the art (See e.g., Rossi et al., 94:746-750 [1997]). Controls received equal amounts of ethanol. Transfections were performed using Lipofectamine Plus (GIBCO) for HeLa and COS cells and DEAE-dextran (Sigma) for Jurkat cells. Xpress-tagged NIK, Xpress-tagged MEKK1, HA-tagged IKKα, and HA-tagged IKKβ were also used (See e.g., Zandi et al., Science 281:1360-1363 [1998]; and Delhase et al., Science 284:309-313 [1999]). COX2 and cPLA2 expression vectors were obtained from Dr. L. Feng (See also, Hirose et al., J. Am. Soc. Nephrol., 9:408-416 [1998]). PGD synthase was cloned from HT29 colon carcinoma cell line cDNA by PCR and subcloned into a pCDNA3 vector. Cells were lysed in buffer B (50 mM Tris-HCl, pH 7.5, 400 mM NaCl, 1 mM EDTA, 1 mM EGTA, 1% Triton, 0.5% NP-40, 10% glycerol, and supplemented with 20 mM β-glycerophosphate, 10 mM PNPP, 500 mM Na3VO4, 1 mM PMSF, 20 μg/ml aprotinin, 2.5 μg/ml leupeptin, 8.3 μg/ml bestatin, 1.7 μg/ml pepstatin, and 2 mM DTT). […]

IκBα = IκBα degradation in stimulated Jurkat cells (immunoblot); format: cell-based, human; details: TNFα or TPA
Procedure: as §1, with “vector.” for “vector. Cells were lysed in buffer B (50 mM Tris-HCl, pH 7.5, 400 mM NaCl, 1 mM EDTA, 1 mM EGTA, 1% Triton, 0.5% NP-40, 10% glycerol, and supplemented with 20 mM β-glycerophosphate, 10 mM PNPP, 500 mM Na3VO4, 1 mM PMSF, 20 μg/ml aprotinin, 2.5 μg/ml leupeptin, 8.3 μg/ml bestatin, 1.7 μg/ml pepstatin, and 2 mM DTT).”
In addition, recombinant IKKβ was expressed in Sf9 cells and purified as described (Zandi et al., supra). […] After 1.5 hours at 4° C., the immunoprecipitates were washed and the kinase activity determined. […]

IKKα = biological target: T1, IKKα (Homo sapiens, UniProt O14920+O15111); experiment: NIK-induced HA-tagged IKKα associated kinase activity in COS cells; format: cell-based; details: PGA1 added immediately after or 18 hours after transfection
T1 construct: expressed in transfected cells; host or cells: COS
T1 sequence (O15111 whole entry, one chain of several): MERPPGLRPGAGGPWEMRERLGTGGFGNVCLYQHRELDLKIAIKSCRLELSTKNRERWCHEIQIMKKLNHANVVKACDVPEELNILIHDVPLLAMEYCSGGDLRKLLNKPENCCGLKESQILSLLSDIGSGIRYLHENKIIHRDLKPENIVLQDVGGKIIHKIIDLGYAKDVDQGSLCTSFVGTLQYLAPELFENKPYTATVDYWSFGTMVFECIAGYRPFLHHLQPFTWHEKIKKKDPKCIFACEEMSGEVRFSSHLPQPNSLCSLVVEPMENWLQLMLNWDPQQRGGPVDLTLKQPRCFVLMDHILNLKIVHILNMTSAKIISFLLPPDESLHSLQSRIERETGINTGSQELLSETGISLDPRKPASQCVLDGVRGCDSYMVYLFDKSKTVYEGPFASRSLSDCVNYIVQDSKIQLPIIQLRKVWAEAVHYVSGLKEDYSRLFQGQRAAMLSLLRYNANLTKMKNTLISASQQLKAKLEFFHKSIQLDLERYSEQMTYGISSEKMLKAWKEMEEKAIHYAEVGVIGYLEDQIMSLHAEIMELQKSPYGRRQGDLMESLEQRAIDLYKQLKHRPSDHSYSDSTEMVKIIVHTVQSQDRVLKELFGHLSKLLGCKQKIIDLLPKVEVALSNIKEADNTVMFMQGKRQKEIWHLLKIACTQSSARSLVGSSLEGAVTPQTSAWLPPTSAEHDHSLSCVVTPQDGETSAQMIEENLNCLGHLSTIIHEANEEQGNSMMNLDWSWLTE
T1 sequence (Q9Y6K9 whole entry partner, one chain of several): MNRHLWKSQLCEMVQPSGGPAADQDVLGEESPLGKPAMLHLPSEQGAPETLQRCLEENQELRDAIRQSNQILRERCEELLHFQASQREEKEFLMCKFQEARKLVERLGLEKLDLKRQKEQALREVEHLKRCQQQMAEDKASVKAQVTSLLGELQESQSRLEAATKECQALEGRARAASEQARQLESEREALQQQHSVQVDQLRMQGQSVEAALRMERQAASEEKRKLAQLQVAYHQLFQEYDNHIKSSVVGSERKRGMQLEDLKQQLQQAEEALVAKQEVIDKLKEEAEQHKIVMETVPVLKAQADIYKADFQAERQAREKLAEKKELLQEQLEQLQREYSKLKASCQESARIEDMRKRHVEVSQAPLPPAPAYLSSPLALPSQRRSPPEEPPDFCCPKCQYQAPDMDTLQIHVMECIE
Procedure: as §1, with “vector.” for “vector. Cells were lysed in buffer B (50 mM Tris-HCl, pH 7.5, 400 mM NaCl, 1 mM EDTA, 1 mM EGTA, 1% Triton, 0.5% NP-40, 10% glycerol, and supplemented with 20 mM β-glycerophosphate, 10 mM PNPP, 500 mM Na3VO4, 1 mM PMSF, 20 μg/ml aprotinin, 2.5 μg/ml leupeptin, 8.3 μg/ml bestatin, 1.7 μg/ml pepstatin, and 2 mM DTT).”
(§2) Cell lysates were incubated with anti-IKKα (Pharmingen), anti-HA (12CA5; Pharmingen), anti-JNK1 (333.8; Pharmingen), or anti-p38 (New England Biolabs) for 2 hours. […] Endogenous IKK, HA-tagged IKKα, endogenous JNK1, and p38 activities were determined with GST-1κBα(1-54), GST-c-Jun(1-79), and GST-ATF2 as substrates.

NF-κB [2] = experiment: NF-κB activation by TPA in human cells expressing very low levels of PPAR-γ; format: cell-based; details: human cells with very low PPAR-γ, data not shown
activated monocytes = details: cited from earlier work
JNK = JNK (Homo sapiens, UniProt P45983); experiment: JNK activity in HeLa cells; format: cell-based; set-up: endogenous in cells; details: even in the absence of TNFα
JNK, sequence (P45983 whole entry): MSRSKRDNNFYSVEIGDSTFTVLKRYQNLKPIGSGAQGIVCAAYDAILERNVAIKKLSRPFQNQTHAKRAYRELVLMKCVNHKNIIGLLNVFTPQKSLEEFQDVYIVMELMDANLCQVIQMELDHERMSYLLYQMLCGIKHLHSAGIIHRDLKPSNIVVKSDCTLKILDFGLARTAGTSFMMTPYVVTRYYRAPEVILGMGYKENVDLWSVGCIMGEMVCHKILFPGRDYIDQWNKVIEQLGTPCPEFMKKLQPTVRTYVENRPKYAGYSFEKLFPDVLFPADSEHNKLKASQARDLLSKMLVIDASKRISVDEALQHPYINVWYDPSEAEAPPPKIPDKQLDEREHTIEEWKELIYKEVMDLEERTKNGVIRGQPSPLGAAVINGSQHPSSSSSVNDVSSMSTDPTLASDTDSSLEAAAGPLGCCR
Procedure: as §1, with “vector.” for “vector. Cells were lysed in buffer B (50 mM Tris-HCl, pH 7.5, 400 mM NaCl, 1 mM EDTA, 1 mM EGTA, 1% Triton, 0.5% NP-40, 10% glycerol, and supplemented with 20 mM β-glycerophosphate, 10 mM PNPP, 500 mM Na3VO4, 1 mM PMSF, 20 μg/ml aprotinin, 2.5 μg/ml leupeptin, 8.3 μg/ml bestatin, 1.7 μg/ml pepstatin, and 2 mM DTT).”
as §2

IKKβ = biological target: T2, IKKβ (Homo sapiens, UniProt O14920); experiment: Recombinant wild-type IKKβ (Sf9) kinase activity; format: biochemical; set-up: FLAG; made in house; host or cells: Sf9 (baculovirus)
T2 sequence (O14920 1-756): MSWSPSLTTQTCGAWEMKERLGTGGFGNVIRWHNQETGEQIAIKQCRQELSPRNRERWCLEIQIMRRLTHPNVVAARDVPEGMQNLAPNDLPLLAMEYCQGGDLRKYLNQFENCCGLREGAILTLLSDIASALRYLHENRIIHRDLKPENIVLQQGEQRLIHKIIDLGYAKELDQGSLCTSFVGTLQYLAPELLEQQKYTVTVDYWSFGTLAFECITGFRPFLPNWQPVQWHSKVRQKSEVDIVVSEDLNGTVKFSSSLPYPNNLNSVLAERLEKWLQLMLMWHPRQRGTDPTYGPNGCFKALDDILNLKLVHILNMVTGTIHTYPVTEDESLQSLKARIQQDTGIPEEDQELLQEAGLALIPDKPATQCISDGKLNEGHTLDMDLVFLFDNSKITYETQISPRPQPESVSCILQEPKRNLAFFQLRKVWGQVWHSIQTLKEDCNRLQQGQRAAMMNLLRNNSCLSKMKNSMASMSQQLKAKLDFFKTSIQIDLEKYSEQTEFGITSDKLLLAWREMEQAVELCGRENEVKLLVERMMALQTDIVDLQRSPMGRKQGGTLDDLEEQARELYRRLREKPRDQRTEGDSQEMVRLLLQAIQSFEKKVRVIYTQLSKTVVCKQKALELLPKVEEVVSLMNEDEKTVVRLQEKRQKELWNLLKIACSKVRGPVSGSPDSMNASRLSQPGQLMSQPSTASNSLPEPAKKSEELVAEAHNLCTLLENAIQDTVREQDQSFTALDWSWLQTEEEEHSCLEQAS
Procedure: In addition, recombinant IKKβ was expressed in Sf9 cells and purified as described (Zandi et al., supra). AA, PGs, LTB4, and T×B2 were added to washed imnmunoprecipitates of recombinant IKKβ in kinase buffer to a final volume of 500 μl. After 1.5 hours at 4° C., the immunoprecipitates were washed and the kinase activity determined. Western blot analysis was also performed as known in the art (See e.g., Rossi et al., supra).
In other experiments, purified recombinant IKKβ immobilized on beads with 15dPGJ2 or diluent were preincubated and extensively rinsed with kinase buffer lacking the inhibitor.

Compound	IC50 (NF-κB [1]; Homo sapiens, read-out: half-maximal inhibitory (IC50) concentration towards NF-κB)	effect on NF-κB activation (NF-κB [1]; TNFα or TPA)	effect on IκBα degradation (IκBα)	effect on NIK-induced IKK activity (HA-IKKα) (IKKα)	inhibition of NF-κB activation by TPA (NF-κB [2])	production of pro-inflammatory cytokines (activated monocytes)	effect on JNK activity (JNK)	effect on recombinant wild-type IKKβ (IKKβ; FIG. 6D)	inhibition after extensive washing (reversibility) (IKKβ; recombinant IKKβ on beads pre-incubated with inhibitor, rinsed with kinase buffer)
CCCCC[C@H](O)/C=C/[C@H]1C=CC(=O)C1CCCCCCC(=O)O (stereo partly drawn) [PGA1, prostaglandin A1]	12 µM	prevented	prevent IκBα degradation; also recorded: prevented	inhibited	–	–	–	–	–
CCCCC/C=C/C=C1/C(=O)C=C[C@@H]1C/C=C\CCCC(=O)O [15dPGJ2, 15-deoxy-Δ^12-14-PGJ2]	–	–	–	–	potent inhibitor	inhibits	stimulated	inhibitory	remained inhibited
